Measurements reported in PubChem BioAssay (NCI).
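Where inhibition never reached the appropriate level, the endpoint shown equals the highest concentration tested. Otherwise, values were interpolated linearly from a five-concentration, 48-hour dose response in 96-well plates. TGI marks complete inhibition of growth.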

Assays:
Assay in all cases: NCI tumour cell line growth inhibition, 48 h
786-0 renal = system: 786-0 renal
BT-549 breast = system: BT-549 breast
CAKI-1 renal = system: CAKI-1 renal
COLO 205 colon = system: COLO 205 colon
HS 578T breast = system: HS 578T breast
NCI-H226 lung = system: NCI-H226 lung
SF-539 CNS = system: SF-539 CNS
SK-MEL-28 melanoma = system: SK-MEL-28 melanoma

Compound	TGI (786-0 renal)	TGI (BT-549 breast)	TGI (CAKI-1 renal)	TGI (COLO 205 colon)	TGI (HS 578T breast)	TGI (NCI-H226 lung)	TGI (SF-539 CNS)	TGI (SK-MEL-28 melanoma)
COc1ccc(NC(C)=O)c(C(=O)CCNC(C)=O)c1	> 100 µM	> 100 µM	> 100 µM	> 100 µM	> 100 µM	> 100 µM	> 100 µM	–
FC(F)(F)C1(C(F)(F)F)OC(Cl)(Cl)C(Cl)(Cl)O1	> 10 µM	> 10 µM	> 10 µM	> 10 µM	> 10 µM	> 10 µM	> 10 µM	> 10 µM
CCOP(=O)(OCC)C(Cc1ccccc1)N=C(c1ccccc1)c1ccccc1 (centres undefined)	30.2 µM	27 µM	31.6 µM	28.7 µM	26.6 µM	32.9 µM	–	31.3 µM
CCOC(=O)NNC1(SC)NC(=O)c2c(cc(Cl)oc2=O)O1 (centres undefined)	4.84 µM	12.2 µM	8.02 µM	25.9 µM	12.3 µM	43.8 µM	4.57 µM	10.5 µM
CC(=O)NC1CCC(NC(=O)OC(C)(C)C)C(NC(=O)OC(C)(C)C)C1 (centres undefined)	> 100 µM	> 100 µM	> 100 µM	> 100 µM	> 100 µM	> 100 µM	> 100 µM	> 100 µM
CSc1nc(-c2cc3c(c(SC)n2)CCC3)cc2c1CCC2	> 100 µM	> 100 µM	> 100 µM	> 100 µM	–	> 100 µM	> 100 µM	> 100 µM
C=CCOc1ccc(C2c3c([nH][nH]c3=O)CC(C)(O)C2C(=O)OC)cc1OC (centres undefined)	> 100 µM	> 100 µM	> 100 µM	> 100 µM	> 100 µM	–	> 100 µM	> 100 µM
Cc1ccc(-c2c(C#N)c(S)n(NS(=O)(=O)c3ccccc3)c(=O)c2C#N)cc1	> 100 µM	73.3 µM	92.9 µM	> 100 µM	–	69 µM	58.3 µM	> 100 µM
CCCCN(CCCC)c1ccc(N=Nc2ccc(S(=O)(=O)O)cc2)cc1	–	> 100 µM	49.6 µM	37.8 µM	–	–	33.4 µM	> 100 µM
c1ccc(-c2cc(-c3cc(-c4ccccc4)n[nH]3)[nH]n2)cc1	> 100 µM	> 100 µM	> 100 µM	> 100 µM	> 100 µM	> 100 µM	> 100 µM	–
COc1cc(/C=C/C(=O)O)ccc1O	> 100 µM	–	> 100 µM	> 100 µM	> 100 µM	> 100 µM	> 100 µM	> 100 µM
c1ccc2c(Cc3c[nH]c4ccccc34)c[nH]c2c1	33.6 µM	36.8 µM	31.4 µM	27.8 µM	63.3 µM	22.5 µM	–	> 100 µM
COc1ccc(/C=N/n2c(Cc3ccc(Cl)cc3)n[nH]c2=O)cc1	54.6 µM	> 100 µM	> 100 µM	> 100 µM	–	> 100 µM	> 100 µM	> 100 µM
COc1ncc(C#CC(=O)c2ccccc2OC)c(OC)n1	3.69 µM	5.21 µM	4.17 µM	4.12 µM	> 32.4 µM	3.35 µM	–	8.06 µM
OCCCN(CCc1ccc(Cl)c(Cl)c1)CCN1CCCC1	60.4 µM	> 100 µM	> 100 µM	–	> 100 µM	–	–	–
O=C(COC(=O)c1ccccc1)c1ccc(Br)cc1	–	21.1 µM	6.44 µM	26.5 µM	29.6 µM	–	28.4 µM	32.1 µM
CC(C)(C)OC(=O)/C=C/C(=O)O/C=C/[N+](=O)[O-]	> 100 µM	–	> 100 µM	> 100 µM	> 100 µM	> 100 µM	> 100 µM	–
Cn1c2c(c3ccccc31)CC(=O)N1CCCCC1C21OCCO1 (centres undefined)	> 100 µM	> 100 µM	> 100 µM	> 100 µM	> 100 µM	> 100 µM	–	> 100 µM
O=C(/C(Cl)=C/c1ccccc1)c1ccccc1	3.37 µM	6.49 µM	3.97 µM	–	15 µM	18.1 µM	13.1 µM	6.06 µM
COc1ccc(S(=O)Cc2cc(OC)ccc2OC)cc1 (centres undefined)	> 100 µM	> 100 µM	> 100 µM	> 100 µM	–	> 100 µM	> 100 µM	> 100 µM
C=CCC1(O)c2cccc(O)c2C(=O)c2cccc(O)c21 (centres undefined)	46.1 µM	47.4 µM	68.2 µM	–	41.8 µM	74.3 µM	> 100 µM	84.7 µM
O=S(=O)(NC(c1ccccc1)(c1cc2ccccc2[nH]1)c1cc2ccccc2n1S(=O)(=O)c1ccccc1)c1ccccc1 (centres undefined)	> 100 µM	> 100 µM	> 100 µM	> 100 µM	> 100 µM	> 100 µM	–	> 100 µM
CCOC(=O)c1c(NC(=O)c2ccccc2)sc2c1CCC2	> 100 µM	> 100 µM	> 100 µM	> 100 µM	> 100 µM	> 100 µM	> 100 µM	–
Cn1c2ccccc2n2c3ccccc3c(=S)c(C#N)c12	> 100 µM	> 100 µM	> 100 µM	–	> 100 µM	> 100 µM	> 100 µM	> 100 µM
N#C[C@](CO)(NC(=O)OCc1ccccc1)C(F)F	> 100 µM	> 100 µM	> 100 µM	> 100 µM	> 100 µM	> 100 µM	–	> 100 µM
C=CCN1C(=O)/C(=C/c2cccs2)N=C1SC1OC(COC(=O)c2ccccc2)C(OC(=O)c2ccccc2)C1OC(=O)c1ccccc1 (centres undefined)	–	> 100 µM	> 100 µM	> 100 µM	–	> 100 µM	> 100 µM	> 100 µM
CCOC(=O)NC(N(C)C(C(C)C)P(=O)(OCC)OCC)(C(F)(F)F)C(F)(F)F (centres undefined)	> 100 µM	–	> 100 µM	> 100 µM	> 100 µM	> 100 µM	> 100 µM	> 100 µM
COC(=O)[C@H]1ON2O[C@@H](O[C@H]3CCCC[C@@H]3C(C)(C)c3ccccc3)C[C@@H]3CC[C@H]1[C@@]32C	> 100 µM	–	> 100 µM	> 100 µM	> 100 µM	> 100 µM	–	–
